Experimental data as given in patent publication US9890147B2 (BAYER PHARMA AKTIENGESELLSCHAFT, priority 2012, dated 2018).

Assays:
BRD4 (BD1) = target: T1, BRD4 (BD1) (Homo sapiens, UniProt O60885); assay: Binding assay BRD4/acetylated peptide H4 (TR-FRET protein-protein interaction assay)
T1 construct: with relatively long constructs also being possible, preferably amino acids 44-168; made in house; host or cells: E. coli
Procedure, shortened: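 Displacement of biotin-Ac-H4 peptide from His6-tagged BRD4(BD1), final usually 10 nM, read as Eu-streptavidin to anti-His-XL665 TR-FRET (665/620 nm). Compounds tested at 11 doses up to 20 μM in duplicate, pH 7.5 HEPES, 22 °C then 4 °C incubation; IC50 by 4-parameter regression.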

MOLM-13 cells = assay: Cell proliferation assay (alamarBlue), MOLM-13; assay type: cell-based; settings: Homo sapiens, 96 hours incubation, inhibition of cell proliferation
Procedure, shortened: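 IC50 = concentration giving 50% growth inhibition relative to buffer-treated cells, after subtracting baseline fluorescence taken before dosing. Compound applied at 1E-5 to 1E-8 M for 96 h at 37 °C in RPMI1640 with 10% FCS; alamarBlue signal at 530/590 nm.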

Row | SMILES | IC50 (BRD4 (BD1)) [µM] | IC50 (MOLM-13 cells) [µM]
1 | CNC(=O)N1N=C(c2ccc(N3CCN(C(C)=O)CC3)cc2)c2cc(OC)c(OC)cc2C[C@H]1C [Example 132.1, (4R)-1-[4-(4-acetylpiperazin-1-yl)phenyl]-7,8-dimethoxy-N,4-dimethyl-4,5-dihydro-3H-2,3-benzodiazepine-3-carboxamide] | 4.08 | 7.56
2 | CNC(=O)N1N=C(c2ccc(N3CCN(C(C)=O)CC3)cc2)c2cc(OC)c(OC)cc2C[C@@H]1C [Example 132.2, (4S)-1-[4-(4-acetylpiperazin-1-yl)phenyl]-7,8-dimethoxy-N,4-dimethyl-4,5-dihydro-3H-2,3-benzodiazepine-3-carboxamide] | 0.02 | 0.23
3 | CNC(=O)N1N=C(c2ccc(N3CCN(C(=O)C(C)(C)O)CC3)cc2)c2cc(OC)c(OC)cc2C[C@@H]1C [Example 134.1, (4S)-1-{4-[4-(2-hydroxy-2-methylpropanoyl)piperazin-1-yl]phenyl}-7,8-dimethoxy-N,4-dimethyl-4,5-dihydro-3H-2,3-benzodiazepine-3-carboxamide] | 0.03 | 0.08
4 | CNC(=O)N1N=C(c2ccc(N3CCS(=O)(=O)CC3)cc2)c2cc(OC)c(OC)cc2C[C@@H]1C [Example 136, (4S)-1-[4-(1,1-dioxidothiomorpholin-4-yl)phenyl]-7,8-dimethoxy-N,4-dimethyl-4,5-dihydro-3H-2,3-benzodiazepine-3-carboxamide] | 0.02 | 0.2
5 | CNC(=O)N1N=C(c2ccc(N3CCN(C)C(=O)C3)cc2)c2cc(OC)c(OC)cc2C[C@@H]1C [Example 138.1, (4S)-7,8-dimethoxy-N,4-dimethyl-1-[4-(4-methyl-3-oxopiperazin-1-yl)phenyl]-4,5-dihydro-3H-2,3-benzodiazepine-3-carboxamide] | 0.04 | 0.18

Second part, the compound after the results:

Row | IC50 (BRD4 (BD1)) [µM] | IC50 (MOLM-13 cells) [µM] | SMILES
6 | 3.98 | > 10 | CNC(=O)N1N=C(c2ccc(N3CCC3)cc2)c2cc(OC)c(OC)cc2C[C@H]1C [Example 128.1, (4R)-1-[4-(azetidin-1-yl)phenyl]-7,8-dimethoxy-N,4-dimethyl-4,5-dihydro-3H-2,3-benzodiazepine-3-carboxamide]
7 | 6.62 | > 10 | CNC(=O)N1N=C(c2ccc(N3CC(F)C3)cc2)c2cc(OC)c(OC)cc2C[C@H]1C [Example 129.1, (4R)-1-[4-(3-fluoroazetidin-1-yl)phenyl]-7,8-dimethoxy-N,4-dimethyl-4,5-dihydro-3H-2,3-benzodiazepine-3-carboxamide]
8 | 12.3 | 9.87 | CNC(=O)N1N=C(c2ccc(-n3ccc(-c4ccc(F)cc4)n3)cc2)c2cc(OC)c(OC)cc2C[C@H]1C [Example 150.2, (4R)-1-{4-[3-(4-fluorophenyl)-1H-pyrazol-1-yl]phenyl}-7,8-dimethoxy-N,4-dimethyl-4,5-dihydro-3H-2,3-benzodiazepine-3-carboxamide]
9 | 0.33 | 0.56 | CNC(=O)N1N=C(c2ccc(-c3c(C)noc3C)cc2)c2cc(OC(F)(F)F)c(Cl)cc2C[C@@H]1C [Example 156.1, (4S)-7-Chloro-1-[4-(3,5-dimethylisoxazol-4-yl)phenyl]-N,4-dimethyl-8-(trifluoromethoxy)-4,5-dihydro-3H-2,3-benzodiazepine-3-carboxamide]
10 | 2.24 | > 10 | CNC(=O)N1N=C(c2ccc(-c3c(C)noc3C)cc2)c2cc(OC(F)(F)F)c(Cl)cc2C[C@H]1C [Example 156.2, (4R)-7-Chloro-1-[4-(3,5-dimethylisoxazol-4-yl)phenyl]-N,4-dimethyl-8-(trifluoromethoxy)-4,5-dihydro-3H-2,3-benzodiazepine-3-carboxamide]
11 | 0.13 | 0.12 | CNC(=O)N1N=C(c2ccc(-c3c(C)noc3C)cc2)c2cc(Cl)c(OC)cc2C[C@@H]1C [Example 157.1, (4S)-8-chloro-1-[4-(3,5-dimethylisoxazol-4-yl)phenyl]-7-methoxy-N,4-dimethyl-4,5-dihydro-3H-2,3-benzodiazepine-3-carboxamide]
